Measured values published in patent publication US11628146B2, “Estrogen receptor ligand treatment for neurodegenerative diseases” (The Regents of the University of California, priority 2014, dated 2023).
Entries after “also recorded” stand apart in the source; their conditions may differ.

Key:
Type in all cases: in vivo, mouse
EAE in NOD mice [1] = assay: Standard EAE clinical score (0-5 scale), MOG-induced EAE, NOD mice; set-up: key to Standard EAE Score: n.s. = not significant; *p < 0.05; ***p = 0.0004; ****p < 0.0001; n.i. = not informative; conditions: for Standard EAE Score: significance vs vehicle
Text: Animals. C57BL/6 and NOD mice 8 weeks old were purchased from Jackson Laboratories (Bar Harbor, Me.). Animals were maintained under environmentally controlled conditions in a 12-hour light/dark cycle with access to food and water ad libitum. All procedures were done in accordance with the guidelines of the National Institutes of Health and the Chancellor's Animal Research Committee of the University of California, Los Angeles Office for the Protection of Research Subjects.
Reagents. AC-186 was dissolved in either Miglyol 812N liquid oil (Sasol North America) or sesame oil (Sigma Aldrich) as following concentration; 1.5 mg/mL for 3 mg/kg group, 5 mg/mL for 10 mg/kg group, and 15 mg/mL for 30 mg/kg group. Diarylpropionitrile (DPN, Tocris Biosciences) was dissolved in 10% molecular-grade ethanol and diluted with 90% of either Miglyol 812N liquid oil or sesame oil.
EAE and Treatments. Animals were injected subcutaneously with Myelin Oligodendrocyte Glycoprotein (MOG), amino acids 35-55 (200 μg/animal, American Peptides), emulsified in complete Freund's adjuvant (CFA) and supplemented with Mycobacterium tuberculosis H37ra (300 μg/animal, Difco Laboratories), over two sites drained by left inguinal and auxiliary lymph nodes in a total volume of 0.1 ml/mouse. One week later, a booster immunization was delivered over contra lateral lymph nodes. Pertussis toxin (500 ng/mouse) (List Biological Laboratories, Inc.) was injected intraperitoneally on days 0 and 2. Animals were monitored daily for EAE signs based on a standard EAE 0-5 scale scoring system: 0—healthy, 1—complete loss of tail tonicity, 2—loss of righting reflex, 3—partial paralysis, 4—complete paralysis of one or both hind limbs, and 5—moribund. Animals received 0.05 ml of either of 1.5, 5, 15 mg/mL AC-186, vehicle (sesame oil or Miglyol 812N liquid oil), or DPN (8 mg/kg/day) via subcutaneous injections every other day. Animals were treated with AC-186 or vehicle after EAE induction. Specifically, treatment was initiated at the first clear signs of clinical disease (EAE day 13-15), and continued to the endpoint of the experiment.

EAE in C57BL/6 mice = assay: Rotarod testing of motor coordination and balance in EAE, C57BL/6 mice; set-up: key to Rotarod Score: n.s. = not significant; *p < 0.05; ***p = 0.0004; ****p < 0.0001; n.i. = not informative; conditions: for Rotarod Score: significance vs vehicle
Method: (§1) Rotarod Testing. Motor behavior was tested up to two times per week for each mouse using a rotarod apparatus (Med Associates Inc., St. Albans, Vt.). Briefly, animals were placed on a rotating horizontal cylinder for a maximum of 200 seconds. The amount of time the mouse remained walking on the cylinder, without falling, was recorded. Each mouse was tested on a speed of 3-30 rpm and given three trials for any given day. The three trials were averaged to report a single value for an individual mouse, and then averages were calculated for all animals within a given treatment group. The first two trial days prior to immunization (day 0), served as practice trials.

EAE in NOD mice [2] = assay: Rotarod testing in EAE, NOD mice; set-up: key to Rotarod Score: n.s. = not significant; *p < 0.05; ***p = 0.0004; ****p < 0.0001; n.i. = not informative
Method: as §1

[3] = NOD F, AC186 10 mg/kg, miglylol vehicle
[4] = NOD F, AC186 30 mg/kg, miglylol vehicle
[5] = NOD F, AC186 30 mg/kg, sesame vehicle
[6] = NOD M, AC186 10 mg/kg, miglylol vehicle
[7] = NOD M, AC186 30 mg/kg, miglylol vehicle

Question: For `Oc1ccc(C2(c3ccccc3F)CCC(F)(F)CC2)cc1` [AC-186], which “Standard EAE Score” value (EAE in NOD mice [1]; [3]) is on record?
Answer: **** (****p < 0.0001)

Question: And the “Standard EAE Score” value (EAE in NOD mice [1]; [4])?
Answer: **** (****p < 0.0001)

Question: What about the “Standard EAE Score” value (EAE in NOD mice [1]; [5]) of the same compound?
Answer: n.s.

Question: And the “Standard EAE Score” value (EAE in NOD mice [1]; [6])?
Answer: n.s.

Question: And the “Standard EAE Score” value (EAE in NOD mice [1]; [7])?
Answer: **** (****p < 0.0001)

Question: And the EAE score (EAE in NOD mice [1]; NOD females, 10 mg/kg in miglyol, vs vehicle, 10 mg/kg)?
Answer: improved EAE scores; also recorded: better EAE scores

Question: And the EAE score (EAE in NOD mice [1]; NOD females, 30 mg/kg in miglyol, vs vehicle, 30 mg/kg)?
Answer: improved EAE scores; also recorded: better EAE scores

Question: And the EAE score (EAE in NOD mice [1]; NOD females, high dose AC-186 in sesame oil carrier)?
Answer: did not ameliorate EAE scores; also recorded: no protection was observed

Question: And the EAE score (EAE in NOD mice [1]; NOD males, 10 mg/kg in miglyol, vs vehicle)?
Answer: not

Question: What about the EAE score (EAE in NOD mice [1]; NOD males, 30 mg/kg in miglyol, vs vehicle, 30 mg/kg) of the same compound?
Answer: improved EAE scores; also recorded: ameliorated

Question: What about the “Rotarod Score” value (EAE in C57BL/6 mice; C57BL/6 F, AC186 3 mg/kg, sesame vehicle) of the same compound?
Answer: n.s.

Question: What about the “Rotarod Score” value (EAE in C57BL/6 mice; C57BL/6 F, AC186 10 mg/kg, miglylol vehicle) of the same compound?
Answer: n.s

Question: And the “Rotarod Score” value (EAE in C57BL/6 mice; C57BL/6 F, AC186 10 mg/kg, sesame vehicle)?
Answer: n.s.

Question: What about the “Rotarod Score” value (EAE in C57BL/6 mice; C57BL/6 F, AC186 30 mg/kg, miglylol vehicle) of the same compound?
Answer: *** (***p = 0.0004)

Question: And the “Rotarod Score” value (EAE in C57BL/6 mice; C57BL/6 F, AC186 30 mg/kg, sesame vehicle)?
Answer: n.s.

Question: What about the “Rotarod Score” value (EAE in C57BL/6 mice; C57BL/6 M, AC186 30 mg/kg, miglylol vehicle) of the same compound?
Answer: **** (****p < 0.0001)

Question: What about the “Rotarod Score” value (EAE in C57BL/6 mice; C57BL/6 M, AC186 30 mg/kg, sesame vehicle) of the same compound?
Answer: n.s.

Question: And the Rotarod times (EAE in C57BL/6 mice; female C57BL/6, 30 mg/kg in miglyol, vs miglyol vehicle)?
Answer: significant efficacy in the rotarod experiment; also recorded: beneficial effects; also recorded: showed an improvement; also recorded: significant improvement

Question: What about the “Rotarod performance at the final two time-points” value (EAE in C57BL/6 mice; female C57BL/6, 30 mg/kg in sesame oil, days 48 and 50, 200 second test) of the same compound?
Answer: performed perfectly

Question: And the Rotarod times (EAE in C57BL/6 mice; female C57BL/6, 30 mg/kg in sesame oil, vs vehicle)?
Answer: No significant effect was observed

Question: What about the Rotarod times (EAE in C57BL/6 mice; male C57BL/6, 30 mg/kg in miglyol, vs miglyol alone) of the same compound?
Answer: performed significantly better; also recorded: better rotarod scores

Question: And the Rotarod times (EAE in C57BL/6 mice; male C57BL/6, 30 mg/kg in sesame oil, vs sesame oil alone)?
Answer: did not perform significantly better

Question: What about the “Rotarod Score” value (EAE in NOD mice [2]; [3]) of the same compound?
Answer: n.i.

Question: And the “Rotarod Score” value (EAE in NOD mice [2]; [4])?
Answer: n.i.

Question: And the “Rotarod Score” value (EAE in NOD mice [2]; [5])?
Answer: n.i.

Question: And the “Rotarod Score” value (EAE in NOD mice [2]; [6])?
Answer: n.i.

Question: What about the “Rotarod Score” value (EAE in NOD mice [2]; [7]) of the same compound?
Answer: n.i.

Question: And the Rotarod times (EAE in NOD mice [2]; NOD males, AC-186 in miglyol, vs vehicle)?
Answer: no significant improvement in performance in the rotarod experiment
